Here are results for seven compounds from PubChem BioAssay (NCI).

In general, TGI refers to the concentration at which net growth stops. A high value points to lower sensitivity of the cells. Usually GI50 stands for the concentration at which growth is held to half of that of the control.

Experiment in all cases: DTP human tumour cell line panel, 48 h
Test [1] deals with SW-620 colon.
The test system of test [2] is T-47D breast.
Test [3] concerns SR leukemia.
In test [4] the test system is SF-268 CNS.
The subject of test [5] is UO-31 renal.
The subject of test [6] is HS 578T breast.
The test system of test [7] is NCI/ADR-RES ovarian.
The subject of test [8] is SK-OV-3 ovarian.
Test [9] deals with HCC-2998 colon.
Test [10] concerns NCI-H23 lung.

Values joined by “and” are separate entries in the source; they are usually repeats but may differ in a detail not shown here. Identical values can stand only once.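 Interpolation was linear, between the two tested concentrations surrounding the appropriate level; five concentrations were tested over 48 hours in 96-well plates. Abbreviation: GI50, concentration required for 50% inhibition of growth. At the TGI there is no net growth.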

Take `CCOP1(=O)OCC2OC(n3cnc4c(N)ncnc43)C(O)C2O1` (stereo not drawn): the TGI in [1], in test [2], in test [3], in [4], in test [5] and in test [6] was greater than 100 µM in each case. Further, the TGI in test [7] and in test [8] was greater than 100 µM throughout.

With `C=C1C(=O)O[C@@H]2[C@@H]3O[C@@](C)(CC/C=C(\C)CCC[C@@H]2C)[C@H](O)C[C@@H]13`, the GI50 is 2.03 µM in test [1]; 2.02 µM in test [2]; 3.04 µM in [4]; 1.4 µM in [5]; 11.4 µM in test [6]; 1.67 µM in test [7]. Moreover, the GI50 in [10] is 3.71 µM; in [8], 13.1 µM. The TGI in test [1] is 3.96 µM; in test [2] it was 4.7 µM; in [9], 18 µM; in [4], 10 µM; in [5] it was 2.93 µM; in [6], greater than 100 µM. Moreover, the results for the TGI in test [7], in test [10] and in test [8] were 4.53 µM, 16.5 µM and 25.8 µM, respectively.

On to `CCCCc1ccc2nc(NC(=O)OC)[nH]c2c1`, for which the GI50 in test [1] is 0.0325 µM; in test [2], 0.0392 µM; in test [9], 0.0966 µM; in [4], 0.0616 µM; in test [5], 12.1 µM; in [6], 0.0266 µM. Further, the GI50 is 0.0311 µM in [7], 0.142 µM in test [10] and 0.0534 µM in test [8]. The TGI in test [1] was greater than 60.5 µM; in test [2], greater than 100 µM; in [9], 3.4 µM; in [4], 16.9 µM; in [5], greater than 100 µM; in [6], 0.649 µM. Further, the TGI in test [7] is 0.121 µM; in test [10], greater than 100 µM; in test [8], greater than 47.1 µM.

Regarding `O=C(Nc1ccc(Cl)cc1)NS(=O)(=O)c1ccc2c(c1)CCC2`, the GI50 in test [1] is 10.6 µg/mL; in [3] it was 19.3 µg/mL; in [9], 17.3 µg/mL; in test [4] it was 15.7 µg/mL; in test [5] it was 21.5 µg/mL; in [10], 15.6 µg/mL. Further, in test [8], the GI50 was 18 µg/mL. For the same compound, the TGI in test [1] was > 100 µM and 33.6 µg/mL; in test [2], 74.6 µM; in test [3], > 100 µM and 91.6 µg/mL; in test [9], > 77.6 µM and 36.8 µg/mL; in test [4], > 100 µM and 35.7 µg/mL; in [5] it was > 76.3 µM and 42 µg/mL. For the same compound, the TGI in [6] is 13.1 µM; in test [10], > 56 µM and 36.3 µg/mL; in test [8], 86.1 µM and 41.9 µg/mL.

As to `Cc1nc2c(cnn2-c2ccnc3c(C(F)(F)F)cccc23)c(=O)o1`, the GI50 in test [1], in test [2], in [9], in test [4], in test [5] and in test [6] was greater than 100 µM throughout. Also, the GI50 in test [7], in test [10] and in [8] was greater than 100 µM throughout. For the same compound, the TGI in test [1], in test [2], in test [9], in test [4], in test [5] and in test [6] was greater than 100 µM each time. Besides, the TGI in test [7], in test [10] and in test [8] was greater than 100 µM each time.

`CCOC(=O)c1cc2c(n1Cc1cccc(OC)c1)-c1oncc1CC2`: the GI50 in test [1] is 0.433 µM; in test [2], 0.61 µM; in [9], 1.94 µM; in test [4], 18 µM; in test [5] it was 1.91 µM; in test [6] it was 0.742 µM. For the same compound, the GI50 in [7] was 0.302 µM; in test [10], 3.42 µM; in test [8], 2.42 µM. Moreover, the TGI in [1] was greater than 100 µM; in test [2] it was 97.2 µM; in [9] it was 29.6 µM; in test [4], greater than 100 µM; in [5], 78.5 µM; in [6], 8.16 µM. Besides, the values for the TGI in [7], in test [10] and in test [8] were 5.14 µM, greater than 100 µM and greater than 100 µM, respectively.

As for `Cc1cc2c(-c3nc4ccccc4[nH]3)c(O)c(O)cc2c(O)c1-c1c(C)cc2c(-c3nc4ccccc4[nH]3)c(O)c(O)cc2c1O`, the GI50 in [1] was 0.0209 µM; in test [2], 0.0168 µM; in test [3] it was 0.035 µM; in test [9], 0.0362 µM; in test [4], 0.0312 µM; in test [5], 0.042 µM. Moreover, the GI50 in [6] is 0.0629 µM; in test [10] it was 0.0289 µM; in test [8], 0.045 µM. The TGI in test [1] is greater than 22 µM; in test [2] it was 0.741 µM; in test [3], greater than 50 µM; in [9], 8.65 µM; in [4] it was 3.72 µM; in test [5], 0.218 µM. Also, the results for the TGI in test [6], in [10] and in test [8] were greater than 50 µM, 1.07 µM and 0.283 µM, respectively.
